Measured values taken from patent US20040266862A1, “Method of improving animal tissue quality by supplementing the animal diet with mixed tocotrienols” (priority 2003, published 2004).
Marks after values point to notes of the source that are not given here.

Key:
Format in all cases: in vivo
[1] = test system: swine; assay: 2002 swine feed test: 24 hour raw pork loin quality
[2] = test system: chickens; assay: 2002 poultry feed test: TBARS content of cooked ground chicken thighs; conditions: 300 ppm in diet
Text: Applicants also assessed the effects of antioxidant supplementation on meat quality in an experiment in which meat from chickens fed one of four dietary treatments was compared. On Jul. 25, 2002, day-old chicks were obtained from a commercial company. The birds were housed in a brooder until Aug. 11, 2002. On Aug. 11, forty-eight birds were randomly allocated to one of four pens (twelve birds per pen). Birds in each pen were offered ad libitum access to one of four treatment diets: control, 300 ppm AT, 300 ppm GT or 150 ppm MT. The MT premix contained a commercially available MT supplement (7.5% alpha-, 12.3% gamma- and 3.0% delta-tocotrienol and 7.2% alpha-tocopherol) mixed with ground corn as the carrier. The total MT premix (ground corn plus MT supplement) represented 2.5% w/w of the finished MT supplemented feed.
On Sep. 13, 2002 (seven weeks of age) the birds were harvested, identified and frozen at −20C. The birds were stored frozen at −20C for 136-159 days post slaughter. On days 136, 156, 157, 158 and 159 (where available) two birds per dietary treatment were thawed in cold water. Meat was removed from the breasts (pectoralis major muscles) and thighs. Breast meat from each chicken was ground through a 3 mm disc in a Krups Butcher Shop 150W Professional Power Meat Grinder. Thigh meat from two chickens was combined (for days 156, 157, 158 and 159; day 136 thigh meat was kept separate for each bird) and ground in a similar manner. Patties were made (10 g for breast; 60 g for thighs) using a 100×15 mm Petri dish as a mold.
Raw ground chicken breast and thigh patties were cooked in a pre-warmed George Foreman grill for five minutes per breast patty and four minutes per thigh patty. Cooked patties were allowed to cool under refrigeration and then quartered (day 136) or halved (days 156, 157, 158 and 159). Each quarter or half was stored at 2.2C in zip lock baggies for a designated period of time. One quarter was used per sampling period. Sampling periods were 0 hours, 4 hours, 26 hours and 48 hours. Thiobarbituric acid reacting substances (TBARS) analyses was performed according to Ahn et al., and the results are shown in the following two tables.

[3] = test system: swine; assay: 2002 swine feed test: fat and TBARS content of raw ground pork
Text: Applicants conducted a second swine feeding trial to further determine the effects on meat quality of supplementation of a swine diet with alpha-tocopherol (AT), gamma-tocopherol (GT) or mixed tocotrienols (MT). Seventy-two barrows (˜75 lbs.) were transported to the Pioneer Livestock Nutrition Center (PLNC) and randomly placed into individual pens with water and feed provided ad libitum. The pigs received a common diet for seven days. On the eighth day the pigs were weighed individually and a uniform group of sixty pigs with an average body weight of about 75 pounds was selected. The pigs were randomly assigned one of five dietary treatments with 12 pigs per treatment. The feeding trial was initiated on Mar. 12, 2002 and ended on Jun. 19, 2002. The pigs were fed a corn-soybean meal diet formulated to provide adequate levels of all nutrients. In addition, one of five dietary treatments was assigned to each group: control, 300 ppm AT, 450 ppm GT, 150 ppm MT, and 300 ppm MT. To each diet a corn oil premix and a ground corn premix were added with the corn oil premix as a carrier for the supplemental tocopherols and the ground corn premix as the carrier for the MT. The MT supplement was obtained commercially from Fuji Chemical Industries (U.S.A.) Inc. of Robbinsville, N.J., and contained 7.5% alpha-, 12.3% gamma- and 3.0% delta-tocotrienol, as well as 7.2% alpha-tocopherol. Trimmed bellies were collected to measure the effects of dietary treatments on ground pork oxidation rate. The bellies were ground through a meat grinder and mixed. Four one-pound samples of each ground belly were placed on a retail meat tray and covered with oxygen permeable film. On each of days 1, 7, 10 and 16 post-grinding, one of the trays was opened and a sample submitted for TBARS (thiobarbituric acid reactive substances) determination, a measure of the extent of oxidation.

[4] = test system: swine; assay: 2002 swine feed test: sensory characteristics of cooked pork loin chops
Text: Applicants conducted a second swine feeding trial to further determine the effects on meat quality of supplementation of a swine diet with alpha-tocopherol (AT), gamma-tocopherol (GT) or mixed tocotrienols (MT). Seventy-two barrows (˜75 lbs.) were transported to the Pioneer Livestock Nutrition Center (PLNC) and randomly placed into individual pens with water and feed provided ad libitum. The pigs received a common diet for seven days. On the eighth day the pigs were weighed individually and a uniform group of sixty pigs with an average body weight of about 75 pounds was selected. The pigs were randomly assigned one of five dietary treatments with 12 pigs per treatment. The feeding trial was initiated on Mar. 12, 2002 and ended on Jun. 19, 2002. The pigs were fed a corn-soybean meal diet formulated to provide adequate levels of all nutrients. In addition, one of five dietary treatments was assigned to each group: control, 300 ppm AT, 450 ppm GT, 150 ppm MT, and 300 ppm MT. To each diet a corn oil premix and a ground corn premix were added with the corn oil premix as a carrier for the supplemental tocopherols and the ground corn premix as the carrier for the MT. The MT supplement was obtained commercially from Fuji Chemical Industries (U.S.A.) Inc. of Robbinsville, N.J., and contained 7.5% alpha-, 12.3% gamma- and 3.0% delta-tocotrienol, as well as 7.2% alpha-tocopherol. A one-inch thick chop was collected from the 10th rib region of each pig carcass to evaluate the effects of dietary treatment on cooked product characteristics. Sensory evaluation was conducted using a trained sensory panel. Each panelist evaluated a ½ inch cube removed from the center of a cooked pork chop immediately after reaching 71 degrees C. Samples were evaluated for degree of juiciness, tenderness, chewiness, pork flavor and off-flavor intensity.

[5] = scale of 1 to 10, 300 ppm in diet
[6] = scale of 1 to 10, 450 ppm in diet

Compound: Cc1c(C)c2c(c(C)c1O)CC[C@@](C)(CCC[C@H](C)CCC[C@H](C)CCCC(C)C)O2 [AT, alpha-tocopherol]
- PH, hour 22 ([1]; 300 ppm in diet): 5.86
- TBARS content ([2]; 0 hours at 2.2C): 0.4568^b mg Malonaldehyde/kg sample
- TBARS content ([2]; 4 hours at 2.2C): 0.8954^d mg Malonaldehyde/kg sample
- TBARS content ([2]; 26 hours at 2.2C): 0.8968^d mg Malonaldehyde/kg sample
- TBARS content ([2]; 48 hours at 2.2C): 1.1669^d mg Malonaldehyde/kg sample
- TBARS content ([3]; Day 1 post-grinding, 300 ppm in diet): 0.13 mg Malonaldehyde/kg sample
- TBARS content ([3]; Day 7 post-grinding, 300 ppm in diet): 0.18 mg Malonaldehyde/kg sample
- TBARS content ([3]; Day 10 post-grinding, 300 ppm in diet): 0.34 mg Malonaldehyde/kg sample
- TBARS content ([3]; Day 16 post-grinding, 300 ppm in diet): 1.46^ab mg Malonaldehyde/kg sample
- Chewiness [4, 5]: 2.3
- Juiciness [4, 5]: 6.0
- Off-flavor [4, 5]: 4.3
- Pork Flavor [4, 5]: 1.8
- Tenderness [4, 5]: 7.8

Compound: Cc1c(O)cc2c(c1C)O[C@](C)(CCC[C@H](C)CCC[C@H](C)CCCC(C)C)CC2 [GT, gamma-tocopherol]
- PH, hour 22 ([1]; 450 ppm in diet): 5.76
- TBARS content ([2]; 0 hours at 2.2C): 0.4839^b mg Malonaldehyde/kg sample
- TBARS content ([2]; 4 hours at 2.2C): 0.6715^d mg Malonaldehyde/kg sample
- TBARS content ([2]; 26 hours at 2.2C): 1.2515^d mg Malonaldehyde/kg sample
- TBARS content ([2]; 48 hours at 2.2C): 1.6312^d mg Malonaldehyde/kg sample
- TBARS content ([3]; Day 1 post-grinding, 450 ppm in diet): 0.19 mg Malonaldehyde/kg sample
- TBARS content ([3]; Day 7 post-grinding, 450 ppm in diet): 0.17 mg Malonaldehyde/kg sample
- TBARS content ([3]; Day 10 post-grinding, 450 ppm in diet): 0.32 mg Malonaldehyde/kg sample
- TBARS content ([3]; Day 16 post-grinding, 450 ppm in diet): 1.01^b mg Malonaldehyde/kg sample
- Chewiness [4, 6]: 2.5
- Juiciness [4, 6]: 5.4
- Off-flavor [4, 6]: 3.9
- Pork Flavor [4, 6]: 1.8
- Tenderness [4, 6]: 7.3
